The values that follow are results of earlier work, collected in patent US20230355701A1, “CO[…] COMPOUNDS” (CAAMTECH, INC., priority 2019, published 2023).

The target of one data set is hMOR (Homo sapiens, UniProt P35372). The settings on record: for functional behaviour at hMOR: BRET functional assay. (In general: Bioluminescence resonance energy transfer reports proximity on the nanometre scale.)
The target of data set [1] is human kappa opioid receptor (hKOR) (Homo sapiens, UniProt P41145).
Data set [2] has as its target T1, human delta opioid receptor (hDOR) (Homo sapiens, UniProt P41143).
Data set [3] addresses T1, human delta opioid receptor (hDOR). This is another data set of the same source.
The conditions of data set [4]: mediated through agonist activity at hMOR.
For data set [5] the following is noted: mice.
The conditions of data set [6]: rats.
The conditions of data set [7]: dogs, given intraperitoneally or orally.
The conditions of data set [8]: intracerebroventricular administration.
Where [9] appears, read: given intraperitoneally or orally.

Molecules are shown by their SMILES. Like-named read-outs stand apart in the source and are kept apart here.

T1 sequence (P41143 whole entry): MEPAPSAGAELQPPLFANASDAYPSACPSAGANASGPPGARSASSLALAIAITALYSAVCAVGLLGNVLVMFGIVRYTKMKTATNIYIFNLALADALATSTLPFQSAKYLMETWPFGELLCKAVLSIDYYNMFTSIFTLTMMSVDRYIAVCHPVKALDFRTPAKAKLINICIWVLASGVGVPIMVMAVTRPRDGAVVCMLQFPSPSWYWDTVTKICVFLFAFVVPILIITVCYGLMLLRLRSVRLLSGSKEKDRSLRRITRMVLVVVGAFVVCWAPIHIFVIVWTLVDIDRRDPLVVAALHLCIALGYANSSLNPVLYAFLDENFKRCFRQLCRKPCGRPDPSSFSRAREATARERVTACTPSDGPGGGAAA
hMOR, sequence (P35372 whole entry): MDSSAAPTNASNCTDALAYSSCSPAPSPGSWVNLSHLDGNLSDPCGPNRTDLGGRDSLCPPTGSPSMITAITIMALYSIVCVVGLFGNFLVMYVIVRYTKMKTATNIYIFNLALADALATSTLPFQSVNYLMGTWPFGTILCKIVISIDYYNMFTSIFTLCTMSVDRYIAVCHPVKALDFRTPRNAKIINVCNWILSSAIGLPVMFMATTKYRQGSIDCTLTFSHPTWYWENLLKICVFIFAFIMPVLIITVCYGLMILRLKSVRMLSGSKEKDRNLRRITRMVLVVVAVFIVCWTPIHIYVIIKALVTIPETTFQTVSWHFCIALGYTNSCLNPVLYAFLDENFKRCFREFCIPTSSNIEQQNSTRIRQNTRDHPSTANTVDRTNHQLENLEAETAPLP
human kappa opioid receptor (hKOR), sequence (P41145 whole entry): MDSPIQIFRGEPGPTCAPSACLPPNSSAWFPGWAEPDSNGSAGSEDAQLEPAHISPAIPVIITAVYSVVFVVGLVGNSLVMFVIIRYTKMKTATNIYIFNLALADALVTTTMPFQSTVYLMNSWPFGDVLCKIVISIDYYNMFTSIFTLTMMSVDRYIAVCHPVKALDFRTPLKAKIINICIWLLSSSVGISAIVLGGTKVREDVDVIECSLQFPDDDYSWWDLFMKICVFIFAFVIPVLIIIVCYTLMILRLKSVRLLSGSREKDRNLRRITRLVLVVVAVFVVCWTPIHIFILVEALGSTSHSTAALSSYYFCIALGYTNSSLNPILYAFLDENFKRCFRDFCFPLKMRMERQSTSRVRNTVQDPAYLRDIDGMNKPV

Turning to `CC[C@@H]1CN2CC[C@@]3(O)C(=Nc4cccc(OC)c43)[C@@H]2C[C@@H]1/C(=C\OC)C(=O)OC` [7-OH, 7-hydroxymitragynine], the “functional behaviour at hMOR” value on hMOR was “partial agonists”. In data set [1], the IC50 entry is recorded as “micromolar range” and the “functional behaviour at hKOR” value is “competitive antagonists”. The “functional behaviour at hDOR” value in [2] is listed as “weak antagonist activity”. Besides, in data set [3], the “binding at hDOR” value is listed as “observed”. Also, in data set [4], the analgesic effects result was “exhibits analgesic effects”.

Regarding `CC[C@@H]1CN2CCc3c([nH]c4cccc(OC)c34)[C@@H]2C[C@@H]1/C(=C\OC)C(=O)OC` [Mitragynine], the “functional behaviour at hMOR” value on hMOR is reported as “partial agonists”. In addition, in data set [1], the IC50 entry is listed as “micromolar range”. Also, the “functional behaviour at hKOR” value in data set [1] is reported as “competitive antagonists”. The “functional behaviour at hDOR” value in data set [2] is on record as “weak antagonist activity”. The “binding at hDOR” value in data set [3] is given as “negligible”. Further, the analgesic activity entry in data set [5] (administered subcutaneously) is “inactive”; in [6] (administered subcutaneously), “inactive”; in data set [8] it was “active analgesic”. The analgesic potency result in [5] (setting [9]), in [6] (setting [9]) and in data set [7] was “equivalent to codeine” each time.

Consider `C=C[C@H]1CN2CCc3c([nH]c4cccc(OC)c34)[C@@H]2C[C@@H]1/C(=C\OC)C(=O)OC` [paynantheine], for which, at hMOR (hMOR), the IC50 entry is recorded as “micromolar range” and the “antagonist activity at hMOR” value is given as “competitive antagonist activity”.

As for `CC[C@@H]1CN2CCc3c([nH]c4cccc(OC)c34)[C@H]2C[C@@H]1/C(=C\OC)C(=O)OC` [speciociliatine], the “antagonist activity at hMOR” value at hMOR (hMOR) is listed as “competitive antagonist activity”.

Take `CCC1CN2CCc3c([nH]c4cccc(OC)c34)[C@@H]2C[C@@H]1/C(=C\OC)C(=O)OC` (stereo partly drawn) [speciogynine]: the “antagonist activity at hMOR” value on hMOR (hMOR) is on record as “competitive antagonist activity”.
